Source: patent US20070015771A1, “Lonidamine analogs” (Threshold pharmaceuticals, Inc., priority 2004, published 2007)
pIC50: −log10 of the molar value. Read-outs that look alike come from different tables or passages of the source.

Legend:
H460 cells = experiment: Antiproliferation assay (Alamar Blue), H460 cells; format: cell-based
Method: (§1) To determine the effect of lonidamine and analogs thereof on cell proliferation, the antiproliferative activity of these compounds was tested in a multi-well Alamar Blue based assay (at 2 h and 3 days). Cell growth in the presence and absence of the test compound (compounds 1-22) was compared, as measured by a fluorescence plate reader at excitation 550 nm and emission 590 nm (see Biosource International Inc., Tech Application Notes, Use of Alamar Blue in the measurement of Cell Viability and Toxicity, Determining IC50). H460 cells (ATCC HTB-177 ([…]), 4,000 cells/well/200 μl) and LNCap cells (ATCC CRL-1740, 6,000 cells/well/200 μl) were seeded in a 96 well plate in RPMI medium (Invitrogen Corporation, Carlsbad, Calif.). After 24 hours, these plates were divided into 3 groups—Control group, 2 h treatment group and 3 day treatment group. In the 2 h treatment group, after 2 h the cells were rinsed to remove the test compound and incubated for 3 days, followed by staining with AlamarBlue. The cells in the 3 day treatment group were incubated for 3 days, followed by staining with AlamarBlue. In the Control group, AlamarBlue was added to the plate at (i) day 0 and (ii) day 3 and measured to establish the control reading.

PWR-1E cells [1] = experiment: Antiproliferation assay 3 days, PWR-1E cells (Example 49); format: cell-based; conditions: read-out: PWR1e cell line IC50
Method: (§2) To determine the effect of lonidamine analogs thereof on cell proliferation, the antiproliferative activity of these compounds was tested in a multi-well Alamar Blue based assay (at 3 days). Cell growth in the presence and absence of the test compound was compared, as measured by a fluoresence plate reader at excitation 550 nm and emission 590 nm (see Biosource International Inc., Tech Application Notes, Use of Alamar Blue in the measurement of Cell Viability and Toxity, Determining IC50). The following cell lines were tested: PWR-1E cells ((ATCC CRL-11611), 3500 cells/well/200 μl in Keratinocyte SFM medium (Gibco Products, Invitrogen Corporation, Carlsbad, Calif.)); DU-145 cells ((ATCC HTB-81), 4000 cells/well/200 μl in MEM Eagles medium (ATCC, Manassas, Va.)); PC3 cells ((ATCC CRL-1435), 4000 cells/200 μl in Modified HAM's F12 medium (ATCC, Manassas, Va.)); PNt2 cells ((Sigma-Aldrich, 95012613-1 VL), 4000 cells/well/200 μl in RPMI medium (Gibco Products, Invitrogen Corporation, Carlsbad, Calif.), BPH-1 ((DSMZ ACC-143), 4000 cells/well/200 μl in RPMI medium (Gibco Products, Invitrogen Corporation, Carlsbad, Calif), and NCI-H460 cells ((ATCC HTB-177), 4000 cells/well/200 μl in RPMI medium (Gibco Products, Invitrogen Corporation, Carlsbad, Calif.)). The cells were seeded in a 96 well plate in a medium specified above. After 24 hours, these plates were divided into 2 groups—Control group and 3 day treatment group. A test compound was added to each plate in the treatment groups at concentrations of […] as tabulated in Table 1 (in 2 μl 1 of 100% DMSO, final DMSO concentration 1% in all wells). For NCI-H460 cells, test compounds were added to each plate in the treatment groups at concentrations of 600, 300, 100, 30, 10, 3, and 1 μM (in 2 μl of 100% DMSO, final DMSO concentration 1% in all wells). The cells in the 3 day treatment group were incubated for 3 days, followed by staining with AlamarBlue. In the Control group, AlamarBlue was added to the plate at (i) day 0 and (ii) day 3 and measured to establish the control reading. […] For the NCI-H460 cells, the capacity of the cells to proliferate was measured 5 hours after addition of AlamarBlue using the same fluorescence plate reader as stated above.

PWR-1E cells [2] = experiment: Antiproliferation assay, PWR-1E cells (Example 48); format: cell-based; conditions: read-out: IC50 PWR-1E cell
Method: as §1
The effect of lonidamine and analogs thereof on cell proliferation in PWR-1E cells (ATCC CRL-11611) was determined in an antiproliferative assay using PWR-1E cells (5000 cells/well) in Keratinocyte SFM medium (Gibco Products, Invitrogen Corporation, Carlsbad, Calif.) according to the procedure detailed in Example 47 above.

[3] = 5 day systemic administration in male SH rats, pharmacokinetic blood samples; format: in vivo, rat; conditions: oral daily for 5 days at 50 mg/ml, blood 2 hours after administration; for concentration at 2 h: rat, in vivo, read-out: PK
Method: (§3) The effect of test compounds (lonidamine and lonidamine analogs) on the SH rat prostate was determined as follows. The test compound was orally administered daily for 5 days to male, SH rat, (n=6, 14 weeks old, Charles River Labs) at 50 mg/ml concentrations (as a 0.5% carboxymethylcellulose formulation). The control rats received an equal amount of the vehicle ([…]). Blood samples were collected 2 hours after administration on day 6, for pharmokinetic analysis of the compounds. On day 6 the rats were sacrificed and the entire prostate and the individual lobes (e.g., the ventral, dorso-lateral, and anterior lobes) were removed and weighed to measure absolute weights. Relative weights of prostate and individual lobes were calculated by dividing the absolute weight by the total body weight of the […]. Relative weights of the entire prostate, the dorsal prostate, and the ventral prostate were calculated by dividing the absolute weight by the total weight of the mouse. The histomorphology of the prostate was also analyzed and compared to that of the control or untreated prostate.

mouse prostate = experiment: Mouse study, 10 day effect of Compound 3 on prostate; format: in vivo; conditions: mice
Method: (§4) The 10 day effect of Compound 3 on the mouse prostate and its 5 day effect on mouse testis were determined as in Example 51 by using 10 mice per experiment group and the results are illustrated graphically in FIGS. 14-18.

mouse testis = experiment: Mouse study, 5 day effect of Compound 3 on testis; format: in vivo; conditions: mice
Method: as §4

testes = experiment: 5 day systemic administration in male SH rats, testis; format: in vivo, rat; design: inhibition in vivo: dose or concentration left out as unconfirmed; conditions: for Testis shrinkage: male SH rats, oral daily for 5 days at 50 mg/ml, day 6; for inhibition in vivo: Rattus norvegicus, po, 144 h, read-out: Testis shrinkage
SH rat prostate = experiment: 5 day systemic administration in male SH rats, prostate; format: in vivo; design: inhibition in vivo: dose or concentration left out as unconfirmed; conditions: for Prostate shrinkage: male SH rats, oral daily for 5 days at 50 mg/ml, day 6; for inhibition in vivo: Rattus norvegicus, po, 144 h, read-out: Prostate shrinkage
Method: as §3

DU-145 cells = experiment: Antiproliferation assay 3 days, DU-145 cells; format: cell-based; conditions: 3 day treatment; read-out: Du-145 cell line IC50
Method: as §2

PC3 cells = experiment: Antiproliferation assay 3 days, PC3 cells; format: cell-based, human; conditions: 3 day treatment; read-out: PC-3 cell line IC50
Method: as §2

BPH-1 = experiment: Antiproliferation assay 3 days, BPH-1 cells; format: cell-based; conditions: 3 day treatment; read-out: BPH-1 cell line IC50
Method: as §2

PNt2 cells = experiment: Antiproliferation assay 3 days, PNt2 cells; format: cell-based; conditions: 3 day treatment; read-out: PNT2c cell line IC50
Method: as §2

LNCaP cells = experiment: Antiproliferation assay (Alamar Blue), LNCaP cells; format: cell-based, human; conditions: 3 day treatment, read-out: GI50 LNCaP cell 3days
Method: as §1

NCI-H460 cells = experiment: Antiproliferation assay 3 days, NCI-H460 cells; format: cell-based; conditions: Homo sapiens, NCI-H460, 72 h, read-out: NCI-H460 cell line IC50
Method: as §2

[4] = test system: cell lines derived from human prostate cells; conditions: LNCaP vs PC3 cells; cited from earlier work
[5] = test system: primary cultures of human prostate epithelial cells; conditions: epithelial vs stromal cells; cited from earlier work
advanced breast cancer = conditions: 28 evaluable patients, daily divided oral dose of 600 mg; cited from earlier work
HIF-1-alpha = conditions: cells cultured under hypoxia, cited from earlier work
[6] = 3 day treatment, read-out: GI50 H460 cell 3 days
[7] = read-out: GI50 H460 cell 2 hr, 2 h treatment then 3 days incubation

Work on `O=C(NO)c1nn(Cc2ccccc2)c2ccccc12` [Compound 2] yielded a GI50 (H460 cells; [6]) of 31.6 µM, a GI50 (H460 cells; [7]) of 400 µM and a pIC50 (PWR-1E cells [1]; 3 day treatment) of 4.74. The pIC50 (PWR-1E cells [2]) was 4.74.

With `O=C(O)c1nn(Cc2c(Cl)cccc2Cl)c2ccccc12` [Compound 3] the PK [3] was 243 µg/mL, the “absolute anterior prostate weight (FIG. 16)” value (mouse prostate) was “reduction” and the “absolute dorsal prostate weight (FIG. 15)” value (mouse prostate) was “reduction”. The “absolute ventral prostate weight (FIG. 14)” value (mouse prostate) was “reduction”, the GI50 (H460 cells; [6]) was 250 µM and the GI50 (H460 cells; [7]) was 398 µM. For the same compound, the “absolute left testis weight (FIG. 18)” value (mouse testis) was “reduction”, the “absolute right testis weight (FIG. 17)” value (mouse testis) was “reduction” and the Testis shrinkage (testes) was 0.4%. The Prostate shrinkage (SH rat prostate) was −2.9%, the pIC50 (DU-145 cells) was 3.65 and the pIC50 (PC3 cells) was 3.72. The pIC50 (BPH-1) was 3.67, the pIC50 (PNt2 cells) was 3.59 and the pIC50 (PWR-1E cells [1]; 3 day treatment) was 4.16. The pIC50 (PWR-1E cells [2]) was 4.60 and the GI50 (LNCaP cells) was 180 µM.

`CS(=O)(=O)NC(=O)c1nn(Cc2ccc(Cl)cc2Cl)c2ccccc12` [Compound 4] gave a GI50 (H460 cells; [6]) of 158 µM, a GI50 (H460 cells; [7]) of 281 µM and a pIC50 (PWR-1E cells [2]) of 4.74. It also gave a GI50 (LNCaP cells) of 178 µM.

For `NC(=O)c1nn(Cc2ccc(Cl)cc2Cl)c2ccccc12` [Compound 5], the PK [3] was 12 µg/mL, the GI50 (H460 cells; [6]) was 20 µM and the GI50 (H460 cells; [7]) was 40 µM. For the same compound, the Testis shrinkage (testes) was −3.5%, the Prostate shrinkage (SH rat prostate) was −8.1% and the pIC50 (PWR-1E cells [1]; 3 day treatment) was 5.26. The pIC50 (PWR-1E cells [2]) was 5.40 and the GI50 (LNCaP cells) was 20 µM.

`O=C(O)c1nn(Cc2ccc(Cl)cc2Cl)c2ccccc12` [Compound 12] showed a PK [3] of 153 µg/mL, a GI50 (H460 cells; [6]) greater than 400 µM and a GI50 (H460 cells; [7]) of 251 µM. The Testis shrinkage (testes) was 42%, the Prostate shrinkage (SH rat prostate) was 17% and the pIC50 (DU-145 cells) was 3.67. For the same compound, the pIC50 (PC3 cells) was 3.71, the pIC50 (BPH-1) was 3.64 and the pIC50 (PNt2 cells) was 3.70. The pIC50 (PWR-1E cells [1]; 3 day treatment) was 4.51, the pIC50 (PWR-1E cells [2]) was 4.70 and the GI50 (LNCaP cells) was 125 µM.

`O=C(NO)c1nn(Cc2ccc(Cl)cc2Cl)c2ccc(Cl)cc12` [Compound 54] gave a PK [3] of 120 µg/mL, a Testis shrinkage (testes) of 0.3% and a Prostate shrinkage (SH rat prostate) of 6.8%. It also gave a pIC50 (PWR-1E cells [1]; 3 day treatment) of 5.89.

Work on `CN(O)C(=O)c1nn(Cc2ccc(Cl)cc2Cl)c2ccccc12` [Compound 56] yielded a pIC50 (DU-145 cells) of 5.49, a pIC50 (PC3 cells) of 5.40 and a pIC50 (BPH-1) of 5.78. The pIC50 (PNt2 cells) was 5.90 and the pIC50 (PWR-1E cells [1]; 3 day treatment) was 5.59.

For `OCc1nn(Cc2ccc(Cl)cc2Cl)c2ccccc12` [Compound 58], the concentration at 2 h [3] was 0 µg/mL, the inhibition in vivo (testes) was 26.5% and the inhibition in vivo (SH rat prostate) was 12.9%.

Work on `O=C(O)c1nn(Cc2ccc(Cl)cc2)c2ccc(Cl)cc12` [Compound 64] yielded a concentration at 2 h [3] of 614 µg/mL, a pIC50 (NCI-H460 cells) of 3.80 and an inhibition in vivo (testes) of -1.3%. It also gave an inhibition in vivo (SH rat prostate) of -0.4% and a pIC50 (PWR-1E cells [1]; Homo sapiens, PWR-1E, 72 h) of less than 4.52.

Work on `N#Cc1ccc(Cn2nc(C(=O)O)c3ccccc32)c(Cl)c1` [Compound 97] yielded a concentration at 2 h [3] of 0 µg/mL, a pIC50 (NCI-H460 cells) of less than 3.52 and an inhibition in vivo (testes) of 0.9%. For the same compound, the inhibition in vivo (SH rat prostate) was 5.5% and the pIC50 (PWR-1E cells [1]; Homo sapiens, PWR-1E, 72 h) was 3.87.

In the case of `O=C(O)c1nn(Cc2ccc(Cl)cc2Cl)c2ccccc12` [lonidamine, 1-(2,4-dichlorobenzyl)-1H-indazole-3-carboxylic acid], the “apoptosis in cell lines derived from human prostate cells” value [4] is given as “induces apoptosis”, the “apoptosis in primary cultures of human prostate epithelial cells” value [5] is given as “induces apoptosis” and the minor response (advanced breast cancer) is given as 11%. For the same compound, the partial response (advanced breast cancer) was 11%, the “reduction of HIF-1-alpha expression/accumulation (nuclear fraction)” value (HIF-1-alpha; 200 micromolar) was “about 2 fold” and the “reduction of HIF-1-alpha expression/accumulation (nuclear fraction)” value (HIF-1-alpha; higher lonidamine concentrations) was “more than 5 fold”.
